pIC50: −log10 of the molar value. “Also recorded” adds a separate entry of the source.
Legend:
[1] = molecular target: T1, UDG in human DLD1 colon cancer cell lysate (Homo sapiens, UniProt P13051); assay: DNA cleavage assay with cell-free protein extracts from DLD1 cells; type: biochemical
T1 construct: IC50 in DLD1 UDG containing cell lysate; other: estimated; effect on 23mer ssDNA generation; DLD1 cell extracts; extracts where UDG was present
Procedure: A: human cancer lysates were extracted from DLD1 human colon cancer cell lines. […] 20% polyacrylamide nucleic acid urea gel electrophoresis was used to resolve the DNA bands at room temperature, 200 v for 50 min. DNA products were visualized using a Typhoon Trio+Variable Mode Imager (Amersham Biosciences) with excitation and emission wavelengths set to 532 nm and 585 nm respectively, PMT set to 400, and pixel size resolution set to 100 μm. […] Either uracil DNA (U:A bp) or thymidine DNA (T:A bp) was added to initiate the reaction and incubated for additional 20 min at 37° C. 20% polyacrylamide nucleic acid urea gel electrophoresis was used to resolve the DNA bands. Gel data were analyzed using ImageJ software. DNA bands were corrected using a constant background band intensity subtraction step. Then, percent cleavage was calculated by using fluorescence intensity of the cleaved 23-mer DNA strand divided by the sum of the fluorescence bands (23mer+40mer DNA).
The reaction was pre-incubated for 20 min at 37° C. before a fluorescently-labeled TAMRA DNA duplex oligo containing a single U:A bp (final 30 nM) was added to each reaction well with a total reaction volume of 50 μL/well. Plate was further incubated for 20 min at 37° C. 5 μL of a denaturing loading dye (20 mg of bromophenol blue, 9.7 ml of formamide plus 300 μL of 10M NaOH) was added to stop each reaction. DNA products from each reaction were resolved on a 20% denaturing polyacrylamide nucleic acid urea gel (5.3 grams of urea was dissolved in 2.3 mL of 5×TBE, 5 mL of 40% bis-acrylamide 29:1 solution). 5×TBE buffer was prepared by dissolving 54 grams of tris base, 28 grams of boric acid, and 4.5 grams of EDTA in a liter of distilled H2O. Gels were processed at 200V for 60 mins at room temperature, in the dark. […] Gel data were analyzed using ImageJ software. […] Then, percent cleavage was calculated by using fluorescence intensity of the cleaved 23-mer DNA strand divided by the sum of the fluorescence bands (23mer+40mer DNA strands)*100 for untreated and treated conditions. […]

[2] = system: uracil removal in wild type HAP cells; assay: Host-cell reactivation assay, uracil removal, wild type HAP cells; type: cell-based, human; conditions: ATA 5.0 μM
Procedure: A: MCF-7 cells were seeded at 50,000 cells per well in a 12-well plate. B: HAP cells (wild type or UNG gene knockout) were seeded at 75,000 cells per well in a 6-well plate. […] After 24 hours, cells were dissociated by trypsinization and analyzed by flow cytometry using an Atune NxT flow cytometer. Gating and compensation were determined by transfection of single-color controls. Reporter expression was calculated for each dose of ATA as previously described in publications and normalized to DMSO treatment.
Removal of uracil in cells was measured using a reporter plasmid containing a dU:dG base pair (referred to as BFP_U), as described previously. […] The reciprocal of BFP_U reporter expression was calculated for each experimental condition. […] This creates a premature stop codon, completely abolishing fluorescence. Removal of thymidine followed by insertion of dC opposite dG restores reporter fluorescence.
Human breast cancer MCF-7 cells were seeded at 50,000 cells per well in a 12-well plate, while HAP cells (wild type or UNG knockout) were seeded at 75,000 cells per well in a 6-well plate. […] After 24 hours, cells were dissociated by trypsinization and analyzed by flow cytometry using an Atune NxT flow cytometer. Gating and compensation were determined by transfection of single-color controls. […]

[3] = system: T:G basepairs (TDG, MBD4) repair in MCF-7 cells; assay: Host-cell reactivation assay, T:G reporter, MCF-7; type: cell-based, human; conditions: ATA 2.5 μM
Procedure: Panel A: 1.25 μM and panel B: 2.5 μM. Reporter expression was calculated for each dose of ATA as described in prior publications and normalized to DMSO treatment.
Removal of uracil in cells was measured using a reporter plasmid containing a dU:dG base pair (referred to as BFP_U), as described previously. In brief, dU is substituted into the transcribed strand at position 191 of the blue fluorescent protein (BFP) gene. When RNA polymerase II incorporates dA opposite dU, transcripts encoding wild type BFP are produced. Upon repair, dU is replaced by dC, leading to production of transcripts encoding a non-fluorescent protein. […] A corresponding cocktail of damage-free plasmids containing pmax BFP (100 ng per transfection), pmax GFP (100 ng per transfection), and carrier plasmid (800 ng per transfection) constituted the “undamaged” cocktail. After normalizing to expression of the pmax,GFP transfection control, expression of BFP_U in the damaged cocktail was normalized to similarly normalized expression of pmax_BFP in the undamaged cocktail. The reciprocal of BFP_U reporter expression was calculated for each experimental condition. […] This creates a premature stop codon, completely abolishing fluorescence. Removal of thymidine followed by insertion of dC opposite dG restores reporter fluorescence.

T1 sequence (P13051 45-313 limits assumed): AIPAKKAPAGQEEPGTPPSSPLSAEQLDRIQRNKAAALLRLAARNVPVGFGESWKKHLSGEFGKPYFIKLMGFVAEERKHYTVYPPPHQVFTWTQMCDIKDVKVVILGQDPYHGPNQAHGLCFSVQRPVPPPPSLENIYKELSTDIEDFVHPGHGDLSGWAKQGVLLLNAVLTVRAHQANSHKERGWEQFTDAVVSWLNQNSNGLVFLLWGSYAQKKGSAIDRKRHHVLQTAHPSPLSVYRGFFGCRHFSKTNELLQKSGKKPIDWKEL

O=C(O)C1=CC(=C(c2ccc(O)c(C(=O)O)c2)c2ccc(O)c(C(=O)O)c2)C=CC1=O [ATA, aurintricarboxylic acid]
effect on 23mer ssDNA generation ([1]; 12.5 μM ATA, DLD1 cell extracts): minimal effect
inhibition of 23mer ssDNA appearance ([1]; 50 μM ATA, extracts where UDG was present): near-complete inhibition; also recorded: completely inhibited
pIC50 ([1]; read-out: IC50 in DLD1 UDG containing cell lysate): ~4.49
reduction of uracil removal in wild type cells [2]: 1.8 fold
share of the effect of UDG knockout [2]: 60%
inhibition of repair of T:G basepair [3]: not inhibiting

Source: patent US20240156764A1, “INHIBITION OF URACIL DNA GLYCOSYLASE IN THE OPEN CONFORMATION” (CASE WESTERN RESERVE UNIVERSITY, priority 2022, published 2024)
